# Laboratory results taken from patent US20080318970A1, “Treatment of Infectious Diseases” (priority 2004, published 2008).
# pEC50: −log10 of the molar value.
# Experiments:
# E. coli 331ME = assay: Checkerboard combination study (FIC index); format: cell-based; details: MDR isolate
# Method: E. coli 331 ME. In vivo-selected multidrug resistant clinical isolates of E. coli. Strains were isolated from a patient with severe cystitis/urosepsis. Resistant to tetracycline, beta-lactams, fluoroquinolones, chloramphenicol and aminoglycosides.
# (§1) The synergistic effect was studied by checkerboard combination studies exposing cells to 0-64 μg/ml anti-infective agent in the absence or presence of trans-flupenthixol, cis-flupenthixol or trans-clopenthixol. Each experiment was repeated in tripleduplicate. MIC values represent the mean values of two separate experiments,
# (§2) A log phase culture of bacteria was diluted with fresh pre-warmed medium and adjusted to a defined OD at 600 nm in order to give a final concentration of 1×10^4 bacteria/ml medium in each well. Each chemosensitising compound was added to the bacterial culture in the wells in two-fold dilutions in order to give final concentrations ranging from 0 to 8 μg/ml. Anti-infective agent was added to the bacterial culture in the wells in two-fold dilutions in order to give final concentrations ranging from 0 to 64 μg/ml Trays were incubated at 37° C. for 16 h. Wells were assessed visually for growth. The Fractional Inhibitory Concentration (FIC) was calculated for each anti-infective agent alone and in combination with trans-flupenthixol, cis-flupenthixol or trans-clopenthixol. The following formulae were used to calculate the FIC index:
# (§3) FIC=FICchemosensitising compound+FICanti-infective agent
# (§4) FICchemosensitising compound=(MICchemosensitising compound+anti-infective agent)/(MICchemosensitising compound)
# (§5) FICanti-infective agent=(MICanti-infective agent+chemosensitising compound/(MICanti-Infective agent)
# (§6) Synergy was defined as a FIC index of <0.5.
# P. aeruginosa 432b = assay: Checkerboard combination study (FIC index); format: cell-based; details: isolate resistant (R)
# Method: P. aeruginosa 432b. Clinical multidrug resistant isolate. Resistant to tetracycline, beta-lactams, fluoroquinolones, and aminoglycosides. Beta-lactamase producing, changes in Penicillin Binding Proteins and changes in Outer Membrane Proteins.
# as §1, §2, §3, §4, §5, §6
# HIV-1 strain HTLV-IIIB = assay: Inhibition of HIV-1 replication in MT4 cells (MTT assay); format: cell-based
# Method: Each experiment was repeated in tripleduplicate. MIC values represent the mean values of two separate experiments.
# The HIV-1 strain HTLV-IIIB were propagated in H9 cells at 37° C., 5% CO2 using RPMI 1640 with 10% heat-inactivated foetal calf serum (FCS) and antibiotics (growth medium). Culture supernatant was filtered ([…]), aliquotted, and stored at −80° C. until use. The HIV-1 strain was obtained from NIH AIDS Research and Reference Program.
# Compounds were examined for possible antiviral activity against strain 111B of HIV-1 using MT4 cells as target cells. MT4 cells were incubated with virus (0.005 MOI) and growth medium containing the test dilutions of compound(s) for six days in parallel with virus-infected and uninfected control cultures without compound added. Expression of HIV in the cultures was indirectly quantified using the MTT assay as previously described. Compounds mediating less than 30% reduction of HIV expression were considered without biological activity. Compounds were tested in parallel for cytotoxic effect in uninfected MT4 cultures containing the test dilutions of compound as described above. Cultures for test of both antiviral activity and cytotoxic effect were set up in tripleduplicates, […] per culture in micro titre plates.
# The 50% inhibitory concentration was determined by interpolation from the plots of percent inhibition versus concentration of compound.
# EC50 is defined as the effective concentration that inhibits 50% of viral production, 50% of viral infectivity, or 50% of the virus-induced cytopathic effect.
# E. coli, LN 3164 = assay: Effect of chemosensitising compounds on DR (DR ratio) with ciprofloxacin, microtiter assay; format: cell-based; details: MIC ciprofloxacin alone / MIC ciprofloxacin + chemosensitising compound at ¼ of its MIC; E. coli LN 3164
# Method: The effects of the chemosensitising compounds on DR were studied by the microtiter assay described above by exposing cells to 0-64 μg/ml anti-infective drug in the absence or presence of chemosensitising compound. Each experiment was repeated in tripleduplicate. MIC values represent the mean values of two separate experiments.
# A log phase culture of bacteria was diluted with fresh pre-warmed medium and adjusted to a defined OD at 600 nm in order to give a final concentration of 1×10^4 bacteria/ml medium in each well. […] Anti-infective agent was added to the bacterial culture in the wells in two-fold dilutions in order to give final concentrations ranging from 0 to 64 μg/ml. Trays were incubated at 37° C. for 16 h. The DR ratio was defined as the ratio between the MIC value for anti-infective agent alone divided by the MIC for the anti-infective agent in the presence of the chemosensitising compound. This ratio represents the increase in apparent potency of the anti-infective agent caused by the chemosensitising compound, and may be expressed as
# DR ratio=(MICanti-infective agent)/(MICanti-infective agent+chemosensitising compound)
# [1] = Pharmacokinetic studies of Trans-clopenthixol with mice, concentrations in sera; format: in vivo, NMRI mice; details: single dose of 0.3 mg per mouse, subcutaneous, 1-24 h (FIG. 4)
# Method: Pharmacokinetic studies were done with NMRI mice. Concentrations in sera were determined after the administration of a single dose of 0.3 mg per mouse. The drug was administered by subcutaneous injection in the neck region in a volume of 0.2 ml per dose. At 1, 2, 4, 6, and 24 hours after the injection blood samples were obtained from the mice in groups of three. After collection, the blood was centrifuged and the serum was stored at −80° C. until it was analyzed by High Pressure Liquid Chromatography.
# S. aureus E45 = assay: Checkerboard combination study (FIC index); format: cell-based, Staphylococcus aureus; details: isolate resistant (R)
# Method: Staphylococcus aureus E45 MRSA. Clinical isolate. Resistant to methicillin. Susceptible to teicoplanin chloramphenicol, fosfomycin, netilmicin and vancomycin.
# as §1, §2, §3, §4, §5, §6
# S. aureus O11 = format: cell-based
# [2] = anti-infective agent Ciprofloxacin
# [3] = anti-infective agent Gentamicin
# [4] = anti-infective agent Piperacillin
structure (smiles),measurement,setting,value
OCCN1CCN(CC/C=C2\c3ccccc3Sc3ccc(Cl)cc32)CC1 [trans-clopenthixol],FIC index,E. coli 331ME; [2],0.003
same,FIC index,E. coli 331ME; [3],0.008
same,FIC index,E. coli 331ME; [4],0.063
same,FIC index,P. aeruginosa 432b; [2],0.008
same,FIC index,P. aeruginosa 432b; [3],0.032
same,FIC index,P. aeruginosa 432b; [4],0.063
same,antiviral effect (in words),"HIV-1 strain HTLV-IIIB; alone, at the concentrations used",no antiviral or cytotoxic effect
same,pEC50,"HIV-1 strain HTLV-IIIB; compound alone, MT4 cells, six days",< 5.52
same,DR ratio,"E. coli, LN 3164",128
same,Serum values,[1],less than 300 ng/ml
same,FIC index,S. aureus E45; anti-infective agent Dicloxacillin,0.06
same,FIC index,S. aureus E45; anti-infective agent Fucidic acid,0.06
same,Frequency on emergence of resistance,S. aureus O11; 1 μg of ciprofloxacin per ml (two times the MIC) in the presence of inhibitor (1 μg/ml),<1 × 10^−10
same,decrease of the frequency of spontaneous emergence of ciprofloxacin resistance,S. aureus O11; inhibitor 1 μg/ml,≥ 100 fold
same,toxic effect of the inhibitor on S. aureus plated in the absence of ciprofloxacin (in words),S. aureus O11; inhibitor 1 μg/ml,affected neither the colony-forming ability nor the colony size
